We go through one compound from US9346746B2, “R(+)-N-formyl-propargyl-aminoindan” (Teva Pharmaceutical Industries, Ltd., priority 2011, dated 2016).

Like-named read-outs stand apart in the source and are kept apart here.

The conditions of data set [1]: melt phase, Air. Here is the method:
Samples intended to degrade under an inert atmosphere were flushed with nitrogen for 5 minutes before closing with a stopper.
The samples were introduced into a pre-heated oven and held at a constant temperature of 78 and 90° C. for 24, 72 or 137 hrs. After completion of the treatment the samples were refrigerated and analyzed.

The conditions of data set [2]: room temperature, initial peroxide 3%. Here is the method: Then peroxide and water were added; complete dissolution of solid was achieved by shaking.
After holding at room temperature for 10 minutes to 20 hrs (oxidation time), the solutions were diluted with mobile phase and analyzed by HPLC.

For data set [3] the following is noted: in vivo; cited from earlier work.
For data set [4] the following is noted: for R(+)-N-formyl-PAI, % of Rasagiline: 90° C., air, 1 mg/ml. Here is the method:
An additional series of degradation experiments was performed at 90° C. in order to achieve even higher degradation of Rasagiline in aqueous solutions.
For this series the treatment time was 1 and 2 weeks, and phosphate-citrate buffer (pH=2.6) and phosphate buffer (pH=8.0) were used.
The solutions were exposed to heat in an oven under an air atmosphere in amber glass vials closed with Teflon stoppers and covered with aluminum foil for protection from light.
The samples were introduced into an oven pre-heated to 90° C. and held at this temperature for 7 or 14 days. After completion of the treatment the samples were refrigerated at 2-8° C. and analyzed.

The conditions of data set [5]: RH=100%, room temperature, 7 days.
For data set [6] the following is noted: 1 mg/ml, air, Ethanol, 78 °C, 168 hrs. How it is done: The solutions were exposed to heating in oven under air atmosphere in amber glass vials closed with Teflon stoppers and covered with aluminum foil for protection from light. After completion of the treatment the samples were refrigerated at 2-8° C. and analyzed later using HPLC.

As to `C#CCN[C@@H]1CCc2ccccc21` [Rasagiline base, R(+)-N-propargyl-1-aminoindan], the “R(+)-N-formyl-PAI, % of Rasagiline” value in data set [1] (78 deg. C., 24 hrs) is reported as 0.14 % of Rasagiline; in data set [1] (78 deg. C., 72 hrs), 0.10 % of Rasagiline; in data set [1] (90 deg. C., 24 hrs) it was 0.08 % of Rasagiline; in data set [1] (90 deg. C., 72 hrs), 0.07 % of Rasagiline; in data set [1] (90 deg. C., 137 hrs), 0.07 % of Rasagiline; in data set [2] (oxidation time 5:00 hr:min), 0.17 % of Rasagiline. The “R(+)-N-formyl-PAI, % of Rasagiline” value in data set [2] (oxidation time 20:00 hr:min) was 0.23 % of Rasagiline; in data set [4] (Acetate buffer pH = 4.1, 1 week), 0.05 % of Rasagiline; in data set [4] (Phosphate buffer pH = 6.0, 1 week), 0.07 % of Rasagiline; in data set [4] (Phosphate buffer pH = 6.0, 2 weeks), 0.16 % of Rasagiline; in data set [4] (Phosphate buffer pH = 8.0, 1 week) it was 0.22 % of Rasagiline; in data set [4] (Phosphate buffer pH = 8.0, 2 weeks), 0.19 % of Rasagiline. Further, the “R(+)-N-formyl-PAI, % of Rasagiline” value in data set [4] (Phosphate-citrate buffer 3.6, 1 week) is on record as 0.13 % of Rasagiline; in data set [4] (Phosphate-citrate buffer 3.6, 2 weeks), 0.11 % of Rasagiline; in data set [4] (Phosphate-citrate buffer pH = 2.6, 1 week) it was 0.17 % of Rasagiline; in data set [4] (Phosphate-citrate buffer pH = 2.6, 2 weeks), 0.26 % of Rasagiline; in data set [6], <0.04 % of Rasagiline. In data set [3], the absolute bioavailability entry is listed as “about 36%”. The “R(+)-N-formyl-PAI found in the solutions” value in data set [4] (aqueous solutions at 90° C., summary statement) was “above 0.1 % area of Rasagiline”. For the same compound, the “R(+)-N-formyl-PAI after humidity stress” value in data set [5] is on record as “not detected”.
